Data from ChEMBL document CHEMBL5154692, “Synthesis of novel thiazolyl hydrazone derivatives as potent dual monoamine oxidase-aromatase inhibitors” (Eur J Med Chem, 2022).

Experiments:
[1] = target: T1, Amine oxidase [flavin-containing] A (Homo sapiens, UniProt P21397); experiment: Inhibition of MAO-A (unknown origin) at 10 mM relative to control; set-up: dose or concentration left out as unconfirmed
T1 sequence (P21397 whole entry): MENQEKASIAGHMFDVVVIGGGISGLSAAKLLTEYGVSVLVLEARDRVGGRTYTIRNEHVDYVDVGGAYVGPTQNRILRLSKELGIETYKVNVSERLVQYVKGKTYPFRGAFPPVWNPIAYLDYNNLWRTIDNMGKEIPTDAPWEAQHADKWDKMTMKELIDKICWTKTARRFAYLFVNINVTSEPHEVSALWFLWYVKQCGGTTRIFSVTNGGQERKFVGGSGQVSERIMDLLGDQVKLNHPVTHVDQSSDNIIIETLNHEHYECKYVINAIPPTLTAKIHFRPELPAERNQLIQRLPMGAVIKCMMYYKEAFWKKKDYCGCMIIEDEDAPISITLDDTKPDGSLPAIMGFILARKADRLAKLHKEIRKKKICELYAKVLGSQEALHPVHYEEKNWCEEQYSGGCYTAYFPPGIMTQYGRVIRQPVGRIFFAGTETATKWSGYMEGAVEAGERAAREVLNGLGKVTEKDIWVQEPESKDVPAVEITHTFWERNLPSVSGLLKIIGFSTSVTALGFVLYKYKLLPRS

[2] = target: T1, Amine oxidase [flavin-containing] A; experiment: Inhibition of MAO-A (unknown origin) at 1 mM relative to control
[3] = target: T2, Amine oxidase [flavin-containing] B (Homo sapiens, UniProt P27338); experiment: Inhibition of MAO-B (unknown origin)
T2 sequence (P27338 whole entry): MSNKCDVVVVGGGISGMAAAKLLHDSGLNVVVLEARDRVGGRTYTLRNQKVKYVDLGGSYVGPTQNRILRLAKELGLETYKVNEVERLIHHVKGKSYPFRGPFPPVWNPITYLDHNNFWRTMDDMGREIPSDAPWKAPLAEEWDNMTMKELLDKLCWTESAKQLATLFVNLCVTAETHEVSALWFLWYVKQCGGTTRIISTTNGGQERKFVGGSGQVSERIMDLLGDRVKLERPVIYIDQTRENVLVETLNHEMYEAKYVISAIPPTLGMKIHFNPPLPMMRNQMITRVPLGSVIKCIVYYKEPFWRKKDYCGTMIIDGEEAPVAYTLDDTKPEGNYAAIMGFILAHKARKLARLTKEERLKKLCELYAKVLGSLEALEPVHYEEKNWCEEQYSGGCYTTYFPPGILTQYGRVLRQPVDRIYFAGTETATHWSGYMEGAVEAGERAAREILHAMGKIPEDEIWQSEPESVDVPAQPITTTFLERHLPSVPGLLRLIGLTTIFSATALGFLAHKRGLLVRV

[4] = target: T3, Aromatase (Homo sapiens, UniProt P11511); experiment: Inhibition of aromatase (unknown origin)
T3 sequence (P11511 whole entry): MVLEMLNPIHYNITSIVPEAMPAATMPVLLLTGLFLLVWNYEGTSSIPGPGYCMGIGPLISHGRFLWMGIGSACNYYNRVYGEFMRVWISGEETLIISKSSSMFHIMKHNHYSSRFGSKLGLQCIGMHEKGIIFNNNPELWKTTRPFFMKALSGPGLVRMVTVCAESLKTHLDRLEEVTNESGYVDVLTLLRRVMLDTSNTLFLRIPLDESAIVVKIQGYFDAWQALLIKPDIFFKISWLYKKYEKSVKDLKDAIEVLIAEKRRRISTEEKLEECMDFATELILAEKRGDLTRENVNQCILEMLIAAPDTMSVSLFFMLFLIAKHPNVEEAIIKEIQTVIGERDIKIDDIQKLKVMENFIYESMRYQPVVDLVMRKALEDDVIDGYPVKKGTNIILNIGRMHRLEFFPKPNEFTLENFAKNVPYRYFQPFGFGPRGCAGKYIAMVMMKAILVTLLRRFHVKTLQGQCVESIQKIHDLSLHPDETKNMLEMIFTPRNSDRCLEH

[5] = target: T1, Amine oxidase [flavin-containing] A; experiment: Inhibition of MAO-A (unknown origin)

Compound | inhibition [1] [%] | inhibition at 1000 µM [2] [%] | IC50 [3] [nM] | IC50 [4] [nM] | IC50 [5] [nM]
COc1ccc(-c2csc(N/N=C/c3ccc4cc(OC)ccc4c3)n2)cc1 | 28.1 | 50 |  |  | 
COc1ccc2cc(/C=N/Nc3nc(-c4ccc(F)cc4)cs3)ccc2c1 | 35.5 | 52.2 |  |  | 
COc1ccc2cc(/C=N/Nc3nc(-c4ccc(C)cc4)cs3)ccc2c1 | 31.1 | 49.8 |  |  | 
CCOC(=O)Cc1csc(N/N=C/c2ccc3cc(OC)ccc3c2)n1 | 30.2 | 60.2 | 39 | 31 | 
COc1ccc2cc(/C=N/Nc3nc(-c4ccccc4)c(C)s3)ccc2c1 | 82.3 | 90.9 |  |  | 72
COc1ccc2cc(/C=N/NC3=NC(=O)CS3)ccc2c1 | 33.9 | 55.8 |  | 42 | 
COc1ccc2cc(/C=N/Nc3nc(-c4cccc([N+](=O)[O-])c4)cs3)ccc2c1 | 84.1 | 90.5 | 46 |  | 68
COc1ccc2cc(/C=N/Nc3nc(-c4ccc5ccccc5c4)cs3)ccc2c1 | 35.7 | 55.9 |  |  | 
COc1ccc2cc(/C=N/Nc3nc(-c4ccc(Cl)cc4)cs3)ccc2c1 | 28.8 | 48.4 |  |  | 
COc1ccc2cc(/C=N/Nc3nc(-c4ccc(-c5ccccc5)cc4)cs3)ccc2c1 | 34.2 | 59.2 |  |  | 
COc1ccc2cc(/C=N/Nc3nc(-c4cccc(Cl)c4)cs3)ccc2c1 | 39.9 | 48.4 |  |  | 
COc1ccc2cc(/C=N/Nc3nc(-c4ccc(S(C)(=O)=O)cc4)cs3)ccc2c1 | 37 | 53.5 |  |  | 
COc1ccc2cc(/C=N/Nc3nc(-c4ccccc4)cs3)ccc2c1 | 26.6 | 51.4 |  |  | 
COc1ccc2cc(/C=N/Nc3nc(-c4ccc(Cl)c(Cl)c4)cs3)ccc2c1 | 32.5 | 47.7 |  |  | 
COc1ccc2cc(/C=N/Nc3nc(-c4ccc([N+](=O)[O-])cc4)cs3)ccc2c1 | 33.4 | 57.8 | 82 |  | 
COc1ccc2cc(/C=N/Nc3nc(-c4cccc(F)c4)cs3)ccc2c1 | 32.1 | 59.4 |  |  | 
CCOC(=O)c1sc(N/N=C/c2ccc3cc(OC)ccc3c2)nc1C | 29.3 | 58.2 |  |  | 
COc1ccc2cc(/C=N/Nc3nc(-c4ccc(C#N)cc4)cs3)ccc2c1 | 30.4 | 58.7 |  |  | 
COc1cccc(-c2csc(N/N=C/c3ccc4cc(OC)ccc4c3)n2)c1 | 21.9 | 56.7 |  |  | 
COc1ccc2cc(/C=N/Nc3nc(-c4cc5ccccc5o4)cs3)ccc2c1 | 27.7 | 58.4 |  |  | 
COc1ccc2cc(/C=N/Nc3nc(C)c(C)s3)ccc2c1 | 30.9 | 54.4 |  |  | 
